Read-outs that look alike come from different tables or passages of the source. Square brackets hold non-standard residues; d marks the D form. Peptide text beside a SMILES is read from it. * marks the point of attachment. X1 = NCCCC[C@H](NC(=O)[C@H](CS)NC(=O)[C@H](CCCCN)NC(=O)[C@@H](N)CNC(=O)C*)C(N)=O; NMeF = CN[C@@H](Cc1ccccc1)C(=O)O; hCys = N[C@@H](CCS)C(=O)O

Data set [1] can be described thus: Biodistribution of radiopharmaceuticals in RAP-deficient mice and control strain C57BL/6J, organs, urine and faeces counted for radioactivity. Format: in vivo. Particulars: mouse, total radioactivity, single intravenous injection 1-2 μCi/animal, 24 hours post injection, n = 3; for tissue uptake at 24 h: kidneys; for dose excreted at 24 h: urine, read-out: Urine (% ID). As for the experimental part:
In order to investigate, whether megalin and cubilin play a role in the renal uptake of radiopharmaceuticals into cells of the proximal tubule, in-vivo experiments with RAP-deficient mice (Jax®Mice, strain B6.129S7-Lrpap1^tmlHer) were carried out.
RAP is mainly located in the endoplasmatic reticulum where it is responsible for the proper folding and escort of megalin to the plasma membrane (Willnow, 1995). RAP also binds to other members of the LDL-receptor family, such as the receptor LRP (LDL-receptor related protein) which is not expressed in the kidneys but mostly in the liver and the brain. In RAP-deficient mice the megalin expression in the kidneys is reduced by about 80% (Bim, 2000) and also the cubilin expression is reduced by some extend. These mice are therefore a representative model to study the megalin dependence of the uptake of radiopharmaceuticals. There exist also megalin knock-out mice which have the disadvantage that only 2% of the bred animals survive to adulthood due to several malformations especially of the forebrain (Leheste, 1999).
RAP-deficient mice (stock #002987) and mice of the control strain C57BL/6J (Jax®Mice, stock #000664) were treated with a single intravenous injection (1-2 μCi/animal) of the following radiopharmaceuticals:
After 24 hours post injection the animals were killed and the organs as well as the collected urine and faeces counted for radioactivity. […]

The target in the next data set is megalin (Homo sapiens, UniProt P98164). The following applies: cited from earlier work.
Sequence of megalin (P98164 26-4655, species assumed): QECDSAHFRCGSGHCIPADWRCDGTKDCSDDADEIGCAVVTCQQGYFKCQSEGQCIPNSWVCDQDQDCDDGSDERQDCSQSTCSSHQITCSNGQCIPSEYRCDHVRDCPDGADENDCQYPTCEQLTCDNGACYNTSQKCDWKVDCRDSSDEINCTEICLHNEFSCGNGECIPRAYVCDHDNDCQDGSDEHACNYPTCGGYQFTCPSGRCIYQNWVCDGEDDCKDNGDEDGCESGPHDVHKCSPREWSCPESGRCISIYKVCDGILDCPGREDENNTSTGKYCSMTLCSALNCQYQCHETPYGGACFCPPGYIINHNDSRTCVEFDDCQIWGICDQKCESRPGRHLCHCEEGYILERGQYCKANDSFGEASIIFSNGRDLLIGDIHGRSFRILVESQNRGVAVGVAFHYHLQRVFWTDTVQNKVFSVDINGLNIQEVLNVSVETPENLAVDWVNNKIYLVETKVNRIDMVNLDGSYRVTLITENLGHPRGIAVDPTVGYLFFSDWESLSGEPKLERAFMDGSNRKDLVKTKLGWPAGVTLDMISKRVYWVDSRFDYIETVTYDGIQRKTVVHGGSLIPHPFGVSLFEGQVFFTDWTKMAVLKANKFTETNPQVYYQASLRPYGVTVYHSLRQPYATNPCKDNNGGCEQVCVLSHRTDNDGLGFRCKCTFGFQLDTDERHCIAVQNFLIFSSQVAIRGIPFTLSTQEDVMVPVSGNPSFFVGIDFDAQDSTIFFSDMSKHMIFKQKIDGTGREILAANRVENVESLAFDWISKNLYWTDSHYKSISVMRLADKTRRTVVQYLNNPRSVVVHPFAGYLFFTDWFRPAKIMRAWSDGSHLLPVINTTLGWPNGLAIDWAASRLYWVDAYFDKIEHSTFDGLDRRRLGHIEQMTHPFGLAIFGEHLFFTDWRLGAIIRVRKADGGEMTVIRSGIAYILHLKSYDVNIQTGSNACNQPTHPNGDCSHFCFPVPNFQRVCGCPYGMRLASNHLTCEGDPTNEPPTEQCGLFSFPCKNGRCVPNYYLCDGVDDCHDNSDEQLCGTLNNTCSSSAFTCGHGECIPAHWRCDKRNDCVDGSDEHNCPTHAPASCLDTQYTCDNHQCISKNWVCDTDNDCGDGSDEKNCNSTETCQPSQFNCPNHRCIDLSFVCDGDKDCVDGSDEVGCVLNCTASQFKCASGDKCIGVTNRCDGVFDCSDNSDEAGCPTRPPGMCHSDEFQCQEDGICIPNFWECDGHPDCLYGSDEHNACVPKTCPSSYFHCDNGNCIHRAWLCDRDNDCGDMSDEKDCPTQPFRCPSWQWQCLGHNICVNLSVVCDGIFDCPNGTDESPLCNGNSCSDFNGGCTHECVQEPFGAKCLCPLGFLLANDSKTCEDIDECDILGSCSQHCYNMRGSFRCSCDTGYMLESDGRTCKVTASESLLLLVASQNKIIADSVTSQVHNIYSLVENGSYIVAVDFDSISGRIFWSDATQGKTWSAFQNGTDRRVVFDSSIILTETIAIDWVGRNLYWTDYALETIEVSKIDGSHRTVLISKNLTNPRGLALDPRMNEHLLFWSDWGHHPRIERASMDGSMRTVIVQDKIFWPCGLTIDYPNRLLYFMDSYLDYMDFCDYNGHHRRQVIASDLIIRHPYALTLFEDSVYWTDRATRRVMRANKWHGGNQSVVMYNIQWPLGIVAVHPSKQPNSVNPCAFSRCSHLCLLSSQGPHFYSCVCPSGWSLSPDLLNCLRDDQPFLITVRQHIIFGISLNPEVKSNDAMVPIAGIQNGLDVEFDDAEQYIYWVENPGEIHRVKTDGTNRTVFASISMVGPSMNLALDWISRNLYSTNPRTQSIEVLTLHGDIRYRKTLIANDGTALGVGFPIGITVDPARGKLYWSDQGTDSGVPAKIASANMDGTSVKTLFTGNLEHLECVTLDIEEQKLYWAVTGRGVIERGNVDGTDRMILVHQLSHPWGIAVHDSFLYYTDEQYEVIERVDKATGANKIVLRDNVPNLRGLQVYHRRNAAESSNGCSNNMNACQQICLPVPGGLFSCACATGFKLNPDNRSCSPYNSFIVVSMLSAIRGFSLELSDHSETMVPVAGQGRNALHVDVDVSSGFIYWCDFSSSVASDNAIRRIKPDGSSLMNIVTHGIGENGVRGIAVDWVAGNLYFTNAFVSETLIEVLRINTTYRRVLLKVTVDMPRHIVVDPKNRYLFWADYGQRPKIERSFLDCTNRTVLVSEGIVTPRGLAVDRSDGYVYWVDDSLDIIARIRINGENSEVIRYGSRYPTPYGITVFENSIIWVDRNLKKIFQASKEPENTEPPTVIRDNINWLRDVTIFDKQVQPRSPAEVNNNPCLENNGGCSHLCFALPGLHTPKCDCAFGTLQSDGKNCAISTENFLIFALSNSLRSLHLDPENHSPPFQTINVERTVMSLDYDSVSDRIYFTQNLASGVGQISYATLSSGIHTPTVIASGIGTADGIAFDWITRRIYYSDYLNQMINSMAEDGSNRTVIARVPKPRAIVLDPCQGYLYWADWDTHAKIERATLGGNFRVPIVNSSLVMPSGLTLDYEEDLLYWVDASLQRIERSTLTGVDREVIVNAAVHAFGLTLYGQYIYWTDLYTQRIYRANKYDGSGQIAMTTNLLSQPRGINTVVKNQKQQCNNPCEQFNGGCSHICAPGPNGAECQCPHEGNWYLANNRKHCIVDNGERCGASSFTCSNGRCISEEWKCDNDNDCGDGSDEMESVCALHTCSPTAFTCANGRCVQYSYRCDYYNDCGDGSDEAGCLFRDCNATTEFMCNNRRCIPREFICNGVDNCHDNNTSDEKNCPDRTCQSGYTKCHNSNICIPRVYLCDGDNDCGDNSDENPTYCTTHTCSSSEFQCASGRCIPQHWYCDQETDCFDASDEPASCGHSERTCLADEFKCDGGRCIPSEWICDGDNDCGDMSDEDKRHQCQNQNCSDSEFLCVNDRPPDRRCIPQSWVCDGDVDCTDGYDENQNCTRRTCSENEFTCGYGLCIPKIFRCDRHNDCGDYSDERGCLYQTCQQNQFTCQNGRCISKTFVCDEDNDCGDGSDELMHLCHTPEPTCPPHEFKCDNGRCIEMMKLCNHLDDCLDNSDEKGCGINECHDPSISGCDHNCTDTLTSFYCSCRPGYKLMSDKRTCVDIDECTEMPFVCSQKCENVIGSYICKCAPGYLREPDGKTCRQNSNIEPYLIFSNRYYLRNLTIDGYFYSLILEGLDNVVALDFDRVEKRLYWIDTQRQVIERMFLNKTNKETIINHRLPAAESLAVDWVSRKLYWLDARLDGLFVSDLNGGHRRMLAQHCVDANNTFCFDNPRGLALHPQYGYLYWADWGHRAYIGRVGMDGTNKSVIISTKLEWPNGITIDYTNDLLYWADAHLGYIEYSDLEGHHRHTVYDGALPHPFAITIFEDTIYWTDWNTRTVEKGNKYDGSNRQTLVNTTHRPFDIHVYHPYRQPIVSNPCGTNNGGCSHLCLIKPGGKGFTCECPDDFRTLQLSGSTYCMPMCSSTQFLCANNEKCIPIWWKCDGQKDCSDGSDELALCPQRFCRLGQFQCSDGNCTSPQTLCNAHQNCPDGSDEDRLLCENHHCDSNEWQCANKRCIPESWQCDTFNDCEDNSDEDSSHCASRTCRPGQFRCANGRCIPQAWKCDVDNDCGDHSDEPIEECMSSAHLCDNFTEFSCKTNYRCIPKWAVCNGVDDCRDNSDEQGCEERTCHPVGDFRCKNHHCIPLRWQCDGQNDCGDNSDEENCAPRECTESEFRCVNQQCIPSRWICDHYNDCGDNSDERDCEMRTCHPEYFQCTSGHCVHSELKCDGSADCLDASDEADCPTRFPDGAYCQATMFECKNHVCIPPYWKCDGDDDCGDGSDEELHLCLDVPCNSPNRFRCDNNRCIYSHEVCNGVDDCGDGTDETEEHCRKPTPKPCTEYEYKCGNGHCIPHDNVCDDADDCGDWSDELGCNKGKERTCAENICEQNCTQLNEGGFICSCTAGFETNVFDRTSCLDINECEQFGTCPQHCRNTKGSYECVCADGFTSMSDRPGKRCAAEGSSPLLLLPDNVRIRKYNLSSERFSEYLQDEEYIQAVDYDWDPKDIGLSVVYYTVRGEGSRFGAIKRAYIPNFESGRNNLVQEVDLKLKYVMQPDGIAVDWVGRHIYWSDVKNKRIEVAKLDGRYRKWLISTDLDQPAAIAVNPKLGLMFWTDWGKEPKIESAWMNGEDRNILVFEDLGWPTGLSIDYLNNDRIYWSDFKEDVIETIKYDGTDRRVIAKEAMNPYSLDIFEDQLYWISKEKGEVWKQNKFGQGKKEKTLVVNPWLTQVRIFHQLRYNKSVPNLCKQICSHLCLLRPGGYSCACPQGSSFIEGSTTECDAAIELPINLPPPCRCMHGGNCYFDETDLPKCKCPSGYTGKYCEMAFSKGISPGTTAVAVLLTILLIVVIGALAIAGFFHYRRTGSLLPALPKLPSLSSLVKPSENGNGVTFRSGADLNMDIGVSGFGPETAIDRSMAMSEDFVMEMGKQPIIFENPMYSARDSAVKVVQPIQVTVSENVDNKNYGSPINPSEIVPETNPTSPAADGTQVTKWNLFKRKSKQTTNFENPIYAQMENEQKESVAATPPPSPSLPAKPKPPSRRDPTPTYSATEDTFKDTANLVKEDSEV
The mark [2] stands for this setting: B6.129S7-Lrpap1^tmlHer (RAP-deficient), RAP−/− (RAP-deficient) mice.

Turning to `CC(C)[C@@H]1NC(=O)[C@H](CCCCN)NC(=O)[C@@H](Cc2c[nH]c3ccccc23)NC(=O)[C@H](Cc2ccc(O)cc2)NC(=O)[C@H](Cc2ccccc2)N(C)C(=O)[C@H](CCSCC(=O)NC[C@H](N)C(=O)N[C@@H](CCCCN)C(=O)N[C@@H](CS)C(=O)N[C@@H](CCCCN)C(N)=O)NC1=O` [Tc-99m-NeoTect ®, metal not drawn] (cyclo([hCys](X1)[NMeF]Y[dW]KV)), in data set [1] (setting [2]), the tissue uptake at 24 h amounted to 99.3 %ID/g and the dose excreted at 24 h is 40.4%. In data set [1] (Control mice (C57BL/6J)), the tissue uptake at 24 h stood at 261 %ID/g and the dose excreted at 24 h came out at 23.6%.
With “RAP: 39 kDa chaperone-like protein that binds tightly to megalin”, the “Affinity of binding to megalin” value with megalin was “high affinity in the nanomolar range”.
